Source: ChEMBL document CHEMBL3046329, “Sensitivity to silthiofam, tebuconazole and difenoconazole of Gaeumannomyces graminis var. tritici isolates from China” (Pest Manag Sci, 2012)
Converted amounts (≈) assume the structure as drawn.

Key:
Gaeumannomyces tritici [1] = assay: Antifungal activity against sithiofam-sensitive Gaeumannomyces graminis var. tritici isolate SD03 expressing C2 genetic cluster assessed as reduction in fungal colony diameter after 4 days; type: functional, organism-based; conditions: isolate SD03, 96 h
Gaeumannomyces tritici [2] = assay: Antifungal activity against sithiofam-sensitive Gaeumannomyces graminis var. tritici isolate HN21 expressing C2 genetic cluster assessed as reduction in fungal colony diameter after 4 days; type: functional, organism-based; conditions: isolate HN21, 96 h
Gaeumannomyces tritici [3] = assay: Antifungal activity against sithiofam-sensitive Gaeumannomyces graminis var. tritici isolate AH01 expressing C2 genetic cluster assessed as reduction in fungal colony diameter after 4 days; type: functional, organism-based; conditions: isolate AH01, 96 h
Gaeumannomyces tritici [4] = assay: Antifungal activity against sithiofam-sensitive Gaeumannomyces graminis var. tritici isolate HN14 expressing C2 genetic cluster assessed as reduction in fungal colony diameter after 4 days; type: functional, organism-based; conditions: isolate HN14, 96 h
Gaeumannomyces tritici [5] = assay: Antifungal activity against sithiofam-sensitive Gaeumannomyces graminis var. tritici isolate SD06 expressing C2 genetic cluster assessed as reduction in fungal colony diameter after 4 days; type: functional, organism-based; conditions: isolate SD06, 96 h
Gaeumannomyces tritici [6] = assay: Antifungal activity against sithiofam-resistant Gaeumannomyces graminis var. tritici isolate AH06 expressing C1 genetic cluster assessed as reduction in fungal colony diameter after 4 days; type: functional, organism-based; conditions: isolate AH06, 96 h
Gaeumannomyces tritici [7] = assay: Antifungal activity against sithiofam-resistant Gaeumannomyces graminis var. tritici isolate HN06 expressing C1 genetic cluster assessed as reduction in fungal colony diameter after 4 days; type: functional, organism-based; conditions: isolate HN06, 96 h
Gaeumannomyces tritici [8] = assay: Antifungal activity against sithiofam-resistant Gaeumannomyces graminis var. tritici isolate HN12 expressing C1 genetic cluster assessed as reduction in fungal colony diameter after 4 days; type: functional, organism-based; conditions: isolate HN12, HN12, 96 h
Gaeumannomyces tritici [9] = assay: Antifungal activity against sithiofam-sensitive Gaeumannomyces graminis var. tritici isolate HN30 expressing C2 genetic cluster assessed as reduction in fungal colony diameter after 4 days; type: functional, organism-based; conditions: isolate HN30, 96 h
Gaeumannomyces tritici [10] = assay: Antifungal activity against sithiofam-sensitive Gaeumannomyces graminis var. tritici isolate JS03 expressing C1 genetic cluster assessed as reduction in fungal colony diameter after 4 days; type: functional, organism-based; conditions: isolate JS03, 96 h
Gaeumannomyces tritici [11] = assay: Antifungal activity against sithiofam-resistant Gaeumannomyces graminis var. tritici isolate HN10 expressing C1 genetic cluster assessed as reduction in fungal colony diameter after 4 days; type: functional, organism-based; conditions: isolate HN10, 96 h
Gaeumannomyces tritici [12] = assay: Antifungal activity against sithiofam-sensitive Gaeumannomyces graminis var. tritici isolate AH08 expressing C2 genetic cluster assessed as reduction in fungal colony diameter after 4 days; type: functional, organism-based; conditions: isolate AH08, 96 h
Gaeumannomyces tritici [13] = assay: Antifungal activity against sithiofam-sensitive Gaeumannomyces graminis var. tritici isolate JS01 expressing C1 genetic cluster assessed as reduction in fungal colony diameter after 4 days; type: functional, organism-based; conditions: isolate JS01, 96 h
Gaeumannomyces tritici [14] = assay: Antifungal activity against sithiofam-sensitive Gaeumannomyces graminis var. tritici isolate HN31 expressing C3 genetic cluster assessed as reduction in fungal colony diameter after 4 days; type: functional, organism-based; conditions: isolate HN31, 96 h
Gaeumannomyces tritici [15] = assay: Antifungal activity against sithiofam-sensitive Gaeumannomyces graminis var. tritici isolate AH05 expressing C2 genetic cluster assessed as reduction in fungal colony diameter after 4 days; type: functional, organism-based; conditions: isolate AH05, 96 h
Gaeumannomyces tritici [16] = assay: Antifungal activity against sithiofam-sensitive Gaeumannomyces graminis var. tritici isolate HN22 expressing C2 genetic cluster assessed as reduction in fungal colony diameter after 4 days; type: functional, organism-based; conditions: isolate HN22, 96 h
Gaeumannomyces tritici [17] = assay: Antifungal activity against sithiofam-resistant Gaeumannomyces graminis var. tritici isolate AH13 expressing C1 genetic cluster assessed as reduction in fungal colony diameter after 4 days; type: functional, organism-based; conditions: isolate AH13, 96 h
Gaeumannomyces tritici [18] = assay: Antifungal activity against sithiofam-resistant Gaeumannomyces graminis var. tritici isolate AH02 expressing C1 genetic cluster assessed as reduction in fungal colony diameter after 4 days; type: functional, organism-based; conditions: isolate AH02, 96 h
Gaeumannomyces tritici [19] = assay: Antifungal activity against sithiofam-sensitive Gaeumannomyces graminis var. tritici isolate HN32 expressing C2 genetic cluster assessed as reduction in fungal colony diameter after 4 days; type: functional, organism-based; conditions: isolate HN32, 96 h
Gaeumannomyces tritici [20] = assay: Antifungal activity against sithiofam-sensitive Gaeumannomyces graminis var. tritici isolate SD04 expressing C2 genetic cluster assessed as reduction in fungal colony diameter after 4 days; type: functional, organism-based; conditions: isolate SD04, 96 h
Gaeumannomyces tritici [21] = assay: Antifungal activity against sithiofam-sensitive Gaeumannomyces graminis var. tritici isolate JS02 expressing C1 genetic cluster assessed as reduction in fungal colony diameter after 4 days; type: functional, organism-based; conditions: isolate JS02, 96 h
Gaeumannomyces tritici [22] = assay: Antifungal activity against sithiofam-resistant Gaeumannomyces graminis var. tritici isolate JS09 expressing C1 genetic cluster assessed as reduction in fungal colony diameter after 4 days; type: functional, organism-based; conditions: isolate JS09, 96 h
Gaeumannomyces tritici [23] = assay: Antifungal activity against sithiofam-resistant Gaeumannomyces graminis var. tritici isolate HN09 expressing C1 genetic cluster assessed as reduction in fungal colony diameter after 4 days; type: functional, organism-based; conditions: isolate HN09, 96 h
Gaeumannomyces tritici [24] = assay: Antifungal activity against sithiofam-resistant Gaeumannomyces graminis var. tritici isolate JS04 expressing C1 genetic cluster assessed as reduction in fungal colony diameter after 4 days; type: functional, organism-based; conditions: isolate JS04, 96 h
Gaeumannomyces tritici [25] = assay: Antifungal activity against sithiofam-resistant Gaeumannomyces graminis var. tritici isolate JS12 expressing C1 genetic cluster assessed as reduction in fungal colony diameter after 4 days; type: functional, organism-based; conditions: isolate JS12, 96 h
Gaeumannomyces tritici [26] = assay: Antifungal activity against sithiofam-sensitive Gaeumannomyces graminis var. tritici isolate HN28 expressing C2 genetic cluster assessed as reduction in fungal colony diameter after 4 days; type: functional, organism-based; conditions: isolate HN28, 96 h
Gaeumannomyces tritici [27] = assay: Antifungal activity against sithiofam-resistant Gaeumannomyces graminis var. tritici isolate HN08 expressing C1 genetic cluster assessed as reduction in fungal colony diameter after 4 days; type: functional, organism-based; conditions: isolate HN08, 96 h
Gaeumannomyces tritici [28] = assay: Antifungal activity against sithiofam-resistant Gaeumannomyces graminis var. tritici isolate JS11 expressing C1 genetic cluster assessed as reduction in fungal colony diameter after 4 days; type: functional, organism-based; conditions: isolate JS11, 96 h
Gaeumannomyces tritici [29] = assay: Antifungal activity against sithiofam-resistant Gaeumannomyces graminis var. tritici isolate AH10 expressing C1 genetic cluster assessed as reduction in fungal colony diameter after 4 days; type: functional, organism-based; conditions: isolate AH10, 96 h
Gaeumannomyces tritici [30] = assay: (§1) Antifungal activity against sithiofam-resistant Gaeumannomyces graminis var. tritici isolate AH02 expressing C1 genetic cluster assessed as fungal induced root necrosis administered to wheat cultivar Huaimai 30 seeds grown on fungal infested soils at 0.25 g ai/kg measured after 10 days (reference value: 28.16%); type: functional
Gaeumannomyces tritici [31] = assay: as §1, with “sithiofam-sensitive” for “sithiofam-resistant”, “SD05” for “AH02”, “C2” for “C1”, “27.71%)” for “28.16%)”; type: functional
Gaeumannomyces tritici [32] = assay: as §1, with “sithiofam-sensitive” for “sithiofam-resistant”, “SD04” for “AH02”, “C2” for “C1”, “27.34%)” for “28.16%)”; type: functional
Gaeumannomyces tritici [33] = assay: as §1, with “AH14” for “AH02”; type: functional

SMILES	EC50 (Gaeumannomyces tritici [1]) [µg/mL]	EC50 (Gaeumannomyces tritici [2]) [µg/mL]	EC50 (Gaeumannomyces tritici [3]) [µg/mL]	EC50 (Gaeumannomyces tritici [4]) [µg/mL]	EC50 (Gaeumannomyces tritici [5]) [µg/mL]	EC50 (Gaeumannomyces tritici [6]) [µg/mL]	EC50 (Gaeumannomyces tritici [7]) [µg/mL]	EC50 (Gaeumannomyces tritici [8]) [µg/mL]	EC50 (Gaeumannomyces tritici [9]) [µg/mL]	EC50 (Gaeumannomyces tritici [10]) [µg/mL]	EC50 (Gaeumannomyces tritici [11]) [µg/mL]	EC50 (Gaeumannomyces tritici [12]) [µg/mL]	EC50 (Gaeumannomyces tritici [13]) [µg/mL]	EC50 (Gaeumannomyces tritici [14]) [µg/mL]	EC50 (Gaeumannomyces tritici [15]) [µg/mL]	EC50 (Gaeumannomyces tritici [16]) [µg/mL]	EC50 (Gaeumannomyces tritici [17]) [µg/mL]	EC50 (Gaeumannomyces tritici [18]) [µg/mL]	EC50 (Gaeumannomyces tritici [19]) [µg/mL]	EC50 (Gaeumannomyces tritici [20]) [µg/mL]	also measured
CC1COC(Cn2cncn2)(c2ccc(Oc3ccc(Cl)cc3)cc2Cl)O1 (stereo unspecified) [DIFENOCONAZOLE]	0.53 (≈ 1.31 µM)	0.254 (≈ 0.625 µM)	0.17 (≈ 0.419 µM)	0.0988 (≈ 0.243 µM)	0.18 (≈ 0.443 µM)	0.24 (≈ 0.59 µM)	0.479 (≈ 1.18 µM)	0.588 (≈ 1.45 µM)	0.102 (≈ 0.251 µM)	0.121 (≈ 0.299 µM)	0.375 (≈ 0.923 µM)	0.019 (≈ 0.0468 µM)	0.142 (≈ 0.349 µM)	0.283 (≈ 0.697 µM)	0.0683 (≈ 0.168 µM)	0.0553 (≈ 0.136 µM)	0.288 (≈ 0.708 µM)	0.273 (≈ 0.672 µM)	0.359 (≈ 0.885 µM)	0.0923 (≈ 0.227 µM)	EC50 (Gaeumannomyces tritici [21]): 0.28 µg/mL (≈ 0.689 µM); EC50 (Gaeumannomyces tritici [22]): 0.13 µg/mL (≈ 0.32 µM); EC50 (Gaeumannomyces tritici [23]): 0.159 µg/mL (≈ 0.392 µM); EC50 (Gaeumannomyces tritici [24]): 0.198 µg/mL (≈ 0.486 µM); EC50 (Gaeumannomyces tritici [25]): 0.116 µg/mL (≈ 0.287 µM); EC50 (Gaeumannomyces tritici [26]): 0.0604 µg/mL (≈ 0.149 µM); EC50 (Gaeumannomyces tritici [27]): 0.216 µg/mL (≈ 0.533 µM); EC50 (Gaeumannomyces tritici [28]): 0.164 µg/mL (≈ 0.403 µM); EC50 (Gaeumannomyces tritici [29]): 0.128 µg/mL (≈ 0.314 µM)
C=CCNC(=O)c1c([Si](C)(C)C)sc(C)c1C [SILTHIOFAM]	0.0009 (≈ 0.00336 µM)	0.0005 (≈ 0.00187 µM)	0.0011 (≈ 0.00411 µM)	0.0009 (≈ 0.00336 µM)	0.0012 (≈ 0.00449 µM)	29.1 (≈ 109 µM)	29.9 (≈ 112 µM)	53 (≈ 198 µM)	0.0014 (≈ 0.00523 µM)	0.0016 (≈ 0.00598 µM)	30.2 (≈ 113 µM)	0.0013 (≈ 0.00486 µM)	0.0002 (≈ 0.000748 µM)	0.0004 (≈ 0.0015 µM)	0.0013 (≈ 0.00486 µM)	0.0024 (≈ 0.00897 µM)	70.2 (≈ 263 µM)	51.8 (≈ 194 µM)	0.0004 (≈ 0.0015 µM)	0.0002 (≈ 0.000748 µM)	Activity (Gaeumannomyces tritici [30]): 28%; Activity (Gaeumannomyces tritici [31]): 3.19%; Activity (Gaeumannomyces tritici [32]): 1.02%; EC50 (Gaeumannomyces tritici [21]): 0.0013 µg/mL (≈ 0.00486 µM); EC50 (Gaeumannomyces tritici [22]): 34.2 µg/mL (≈ 128 µM); EC50 (Gaeumannomyces tritici [23]): 106 µg/mL (≈ 398 µM); EC50 (Gaeumannomyces tritici [24]): 30.3 µg/mL (≈ 113 µM); EC50 (Gaeumannomyces tritici [25]): 48.4 µg/mL (≈ 181 µM); Activity (Gaeumannomyces tritici [33]): 28.42%; EC50 (Gaeumannomyces tritici [26]): 0.0005 µg/mL (≈ 0.00187 µM); EC50 (Gaeumannomyces tritici [27]): 62.4 µg/mL (≈ 233 µM); EC50 (Gaeumannomyces tritici [28]): 46.8 µg/mL (≈ 175 µM); EC50 (Gaeumannomyces tritici [29]): 57.6 µg/mL (≈ 215 µM)
CC(C)(C)C(O)(CCc1ccc(Cl)cc1)Cn1cncn1 (stereo unspecified) [TEBUCONAZOLE]	0.0983 (≈ 0.319 µM)	0.0609 (≈ 0.198 µM)	0.0254 (≈ 0.0825 µM)	0.0479 (≈ 0.156 µM)	0.0646 (≈ 0.21 µM)	0.0283 (≈ 0.0919 µM)	0.0533 (≈ 0.173 µM)	0.076 (≈ 0.247 µM)	0.123 (≈ 0.401 µM)	0.0742 (≈ 0.241 µM)	0.0691 (≈ 0.224 µM)	0.0489 (≈ 0.159 µM)	0.0325 (≈ 0.106 µM)	0.111 (≈ 0.362 µM)	0.0902 (≈ 0.293 µM)	0.039 (≈ 0.127 µM)	0.302 (≈ 0.981 µM)	0.0999 (≈ 0.325 µM)	0.238 (≈ 0.772 µM)	0.127 (≈ 0.412 µM)	EC50 (Gaeumannomyces tritici [21]): 0.0547 µg/mL (≈ 0.178 µM); EC50 (Gaeumannomyces tritici [22]): 0.0298 µg/mL (≈ 0.0968 µM); EC50 (Gaeumannomyces tritici [23]): 0.0415 µg/mL (≈ 0.135 µM); EC50 (Gaeumannomyces tritici [24]): 0.201 µg/mL (≈ 0.652 µM); EC50 (Gaeumannomyces tritici [25]): 0.0274 µg/mL (≈ 0.089 µM); EC50 (Gaeumannomyces tritici [26]): 0.18 µg/mL (≈ 0.584 µM); EC50 (Gaeumannomyces tritici [27]): 0.057 µg/mL (≈ 0.185 µM); EC50 (Gaeumannomyces tritici [28]): 0.0437 µg/mL (≈ 0.142 µM); EC50 (Gaeumannomyces tritici [29]): 0.112 µg/mL (≈ 0.363 µM)
